Measured values published in the supplement of paper PMC10307832.

Experiments:
Assay in all cases: relative viability (nuclei count vs DMSO), 5 days (fraction); higher = more cells survive
[1] = compound: CCN(CCO)CCCC(C)Nc1ccnc2cc(Cl)ccc12 [Hydroxychloroquine] + NC(=O)Nc1cc(-c2cccc(F)c2)sc1C(=O)N[C@H]1CCCNC1 [AZD7762] (partner 0.2 µM)
How it was run: (§1)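 Lung cancer cell lines in 1536-well plates were dosed by pin tool the day after seeding, either with one drug alone or with a fixed anchor-drug dose plus five library-drug doses (not always all listed) in √10 steps. After 5 days, cells were fixed and their nuclei stained in one step (final 0.05% Triton X-100, 1% formaldehyde, 1 ug/ml Hoechst), then counted on 4× images. Relative viability is the nuclei count in treated wells divided by that in vehicle wells. Values are medians of duplicate plates.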

[2] = compound: CCN(CCO)CCCC(C)Nc1ccnc2cc(Cl)ccc12 [Hydroxychloroquine] + CC(=O)c1c(C)c2cnc(Nc3ccc(N4CCNCC4)cn3)nc2n(C2CCCC2)c1=O [Palbociclib] (partner 0.5 µM)
How it was run: as §1

[3] = compound: CCN(CCO)CCCC(C)Nc1ccnc2cc(Cl)ccc12 [Hydroxychloroquine] + C[C@@H](Oc1cc(-c2cnn(C3CCNCC3)c2)cnc1N)c1c(Cl)ccc(F)c1Cl [Crizotinib] (partner 1 µM)
How it was run: as §1

[4] = compound: CCN(CCO)CCCC(C)Nc1ccnc2cc(Cl)ccc12 [Hydroxychloroquine] + O=C(CCCCCCC(=O)Nc1ccccc1)NO [Vorinostat] (partner 1 µM)
How it was run: as §1

Cell Line	relative viability ([1]; first compound 0.5 µM)	relative viability ([1]; first compound 1.581 µM)	relative viability ([1]; first compound 5 µM)	relative viability ([1]; first compound 15.81 µM)	relative viability ([1]; first compound 50 µM)	relative viability ([2]; first compound 0.5 µM)	relative viability ([2]; first compound 1.581 µM)	relative viability ([2]; first compound 5 µM)	relative viability ([2]; first compound 15.81 µM)	relative viability ([2]; first compound 50 µM)	relative viability ([3]; first compound 0.5 µM)	relative viability ([3]; first compound 1.581 µM)	relative viability ([3]; first compound 5 µM)	relative viability ([3]; first compound 15.81 µM)	relative viability ([3]; first compound 50 µM)	relative viability ([4]; first compound 0.5 µM)	relative viability ([4]; first compound 1.581 µM)	relative viability ([4]; first compound 5 µM)	relative viability ([4]; first compound 15.81 µM)	relative viability ([4]; first compound 50 µM)
201T	0.571	0.809	0.759	0.59	0.658	0.339	0.351	0.378	0.379	0.384	1.02	1	1.07	0.978	0.821	0.954	0.943	1.02	0.929	1.07
A549											0.832	0.643	0.781	0.735	0.805					
A-427	0.727	0.802	0.769	0.696	0.671	0.499	0.474	0.483	0.512	0.493	0.935	0.869	0.94	0.838	0.973	0.919	0.826	0.834	0.807	0.79
ABC-1	0.754	0.917	0.797	0.995	0.711	0.726	0.776	0.909	0.793	0.714	1.13	0.981	1.46	1.2	1.09	1.33	1.19	1.11	0.934	1.19
BEN	0.795	0.652	0.767	0.776	0.759	0.482	0.434	0.439	0.473	0.469	0.848	0.728	0.863	0.947	1.01	0.632	0.563	0.638	0.635	0.608
CAL-12T	0.571	0.804	0.596	0.599	0.659	0.56	0.383	0.462	0.478	0.595	0.577	0.614	0.92	0.579	0.831	0.865	0.725	0.684	0.873	0.979
COR-L23						0.215	0.232	0.309	0.299	0.307	0.786	0.573	0.895	0.868	0.86	0.409	0.455	0.545	0.453	0.415
COR-L 105						0.41	0.354	0.405	0.391	0.392	0.871	0.838	0.901	0.835	0.79	0.87	0.807	0.628	0.743	0.804
Calu-6											0.84	0.855	0.847	0.896	0.579					
ChaGo-K-1	0.775	0.88	0.821	0.901	0.998	0.967	0.942	0.912	0.975	0.989	1.05	1.14	1.16	1.51	1.24	0.806	0.785	0.778	0.759	0.711
EBC-1											0.196	0.181	0.181	0.189	0.189					
EKVX	0.549	0.772	0.753	0.653	0.759	0.354	0.374	0.377	0.74	0.412	1.01	0.919	0.814	0.907	0.963	0.688	0.609	0.677	0.767	0.648
EMC-BAC-2	1.12	0.887	1.01	1.07	1.11	0.52	0.45	0.519	0.514	0.523	0.826	0.743	0.741	0.755	0.807	0.492	0.443	0.375	0.425	0.328
EPLC-272H	0.168	0.207	0.214	0.232	0.193	0.281	0.34	0.309	0.285	0.295	0.8	0.983	0.92	0.86	1.23		0.359	0.433	0.392	0.488
H3255	0.857	0.897	0.875	0.882	0.891	0.335	0.32	0.303	0.318	0.312	0.848	0.979	0.716	0.841	0.985	0.741	0.715	0.716	0.858	0.762
HARA	0.263	0.373	0.405	0.219	0.376	0.239	0.292	0.26	0.302	0.23	1.13	1.31	1.05	1.02	1.04	0.516	0.482	0.55	0.603	0.594
HCC-15	1.29	1.15	1.11	1.35	1.49	0.754	0.762	0.745	0.731	0.574	0.884	0.818	0.867	1.01	0.94	0.796	0.828	0.902	0.9	0.775
HCC-44	1.07	1.04	1.08	1.06	0.975	0.952	1.03	1.01	1.04	1.03	0.821	0.804	0.87	0.829	1.01	1.1	1.09	1.14	1.1	1.14
HCC-78	0.595	0.754	0.605	0.661	0.641	0.469	0.48	0.483	0.527	0.451	0.349	0.325	0.338	0.314	0.358	0.632	0.381	0.438	0.446	0.509
HCC-366	0.228	0.381	0.289	0.235	0.384	0.324	0.406	0.366	0.381	0.665	0.698	0.607	0.402	0.514	0.612	0.339	0.232	0.301	0.338	0.434
HCC-827	0.207	0.227	0.237	0.264	0.22	0.413	0.456	0.467	0.466	0.521	0.86	0.916	1.01	0.976	0.871	0.811	0.873	0.786	0.759	0.571

Cell Line	relative viability ([1]; first compound 0.5 µM)	relative viability ([1]; first compound 1.581 µM)	relative viability ([1]; first compound 5 µM)	relative viability ([1]; first compound 15.81 µM)	relative viability ([1]; first compound 50 µM)	relative viability ([2]; first compound 0.5 µM)	relative viability ([2]; first compound 1.581 µM)	relative viability ([2]; first compound 5 µM)	relative viability ([2]; first compound 15.81 µM)	relative viability ([2]; first compound 50 µM)	relative viability ([3]; first compound 0.5 µM)	relative viability ([3]; first compound 1.581 µM)	relative viability ([3]; first compound 5 µM)	relative viability ([3]; first compound 15.81 µM)	relative viability ([3]; first compound 50 µM)	relative viability ([4]; first compound 0.5 µM)	relative viability ([4]; first compound 1.581 µM)	relative viability ([4]; first compound 5 µM)	relative viability ([4]; first compound 15.81 µM)	relative viability ([4]; first compound 50 µM)
IA-LM											0.839	0.95	0.898	0.718	0.899	1.02	1.13	1.03		1.06
NCI-H520						0.232	0.205	0.231	0.199	0.239	0.894	0.826	0.86	0.752	0.993	0.915	0.642	0.743	0.77	0.715
NCI-H522	0.712		0.674	0.974	0.907	0.822		1.03	0.986	0.798						0.832		0.882	0.904	1.01
NCI-H596	0.924	0.902	1.14	1.11	1.05						0.918	1.04	1.05	1.05	1.01	0.612	0.765	0.523	0.398	0.587
NCI-H661						0.404	0.364	0.413	0.377	0.403	0.939	0.962	1.05	0.927	1.09	0.827	0.828	0.782	0.802	0.782
NCI-H1299											0.999	0.937	0.91	0.98	0.693					
NCI-H1395	0.393	0.465	0.419	0.375	0.426	0.652	0.556	0.626	0.608	0.563						0.756	0.716	0.606	0.743	0.674
NCI-H1563											0.808	0.833	0.848	0.83	0.806					
NCI-H1648	0.657	0.758	0.575	0.531	0.562	0.277	0.264	0.266	0.211	0.288						0.458	0.44	0.422	0.68	0.503
NCI-H1650						0.291	0.341	0.317	0.323	0.355	0.92	0.903	0.999	1.01	1.04	0.48	0.593	0.634	0.663	0.608
NCI-H1703	0.196	0.159	0.135	0.114	0.137						0.851		0.592	0.74	0.921					
NCI-H1792	0.762	0.692	0.57	0.601	0.836	0.696	0.683	0.584	0.657	0.68	0.951	1.05	1.01	1.08	1.07					
NCI-H1793	0.46	0.615	0.452	0.402	0.404	0.331	0.311	0.372	0.325	0.312						0.791	0.606	0.548	0.638	0.804
NCI-H2009						0.195	0.209	0.212	0.237	0.197	1.02	1	1.06	1.05	1.08	0.764	0.718	0.75	0.747	0.729
NCI-H2023						0.376	0.431	0.349	0.396	0.386	0.652	0.565	0.619	0.614	0.737	0.788	0.574	0.687	0.706	0.85
NCI-H2228						0.322	0.871	0.857	0.706	0.873	0.461	0.46	0.46	0.491	0.427	0.5	0.594	0.457	0.515	0.839
NCI-H2342	0.458	0.47	0.522	0.463	0.449	0.565	0.514	0.507	0.487	0.514						0.713	0.812	0.812	0.813	0.848
SK-LU-1						0.381	0.382	0.432	0.361	0.431	0.948	0.895	0.911	0.928	0.938	0.779	0.719	0.804	0.799	0.643
SK-MES-1						0.365	0.319	0.332	0.368	0.343	0.933	0.955	1.13	1.1	1.03	1.33	0.882	1.2	1.23	1.27
SW 1573						0.369	0.359	0.374	0.34	0.38	0.782	0.839	0.872	0.76	0.753	0.689	0.627	0.878	0.734	0.951
UMC-11						0.285	0.304	0.413	0.311	0.305	0.586	0.573	0.69	0.664	0.846	0.4	0.314	0.387	0.393	0.457
